The test system of experiment [1] is M. tuberculosis H37Rv. As to conditions: cited from earlier work.
Experiment [2] concerns M. tuberculosis H37Rv. Briefly: M. tuberculosis H37Rv single-dose primary screen. In kind it is cell-based, Mycobacterium tuberculosis. Particulars: 10 μg/mL.
Experiment [3] deals with M. tuberculosis H37Rv. In kind it is cell-based. As to conditions: Mycobacterium tuberculosis; for MIC: read-out: approximate MIC of control drug.

Where a name gives a salt, the structure may show the parent alone.

Regarding `O=C1C(O)=C([C@H]2CC[C@H](c3ccc(Cl)cc3)CC2)C(=O)c2ccccc21` [Atovaquone], the “activity against M. tuberculosis (in words)” value in the experiment on M. tuberculosis H37Rv [1] (Prestwick Library data) is listed as “modest activity”.
`Cc1cccc(Nc2nc(-c3ccccc3)cs2)n1` [deaza analog of 1a, 4-phenyl-[2-(6-methyl-2-pyridyl)amino]thiazole]: the “% Inhibition, single-dose screen” value in the experiment on M. tuberculosis H37Rv [2] was 22%.
On to `CCc1cc(C(N)=S)ccn1` [ethionamide, 2-ethylthioisonicotinamide], for which the “TB IC90” value with M. tuberculosis H37Rv [1] (in the TAACF screens) is greater than 100 µg/mL.
Usually MIC stands for the smallest concentration in the dilution series that meets the test's criterion for growth inhibition. By IC50 is commonly meant the concentration that inhibits the measured activity by half. A lower IC50 goes with higher potency. Take `NCC[C@H](O)C(=O)N[C@@H]1C[C@H](N)[C@@H](O[C@H]2O[C@H](CN)[C@@H](O)[C@H](O)[C@H]2O)[C@H](O)[C@H]1O[C@H]1O[C@H](CO)[C@@H](O)[C@H](N)[C@H]1O` [amikacin, Amikacin sulfate]: the MIC in the experiment on M. tuberculosis H37Rv [3] was roughly 0.13 µg/mL. Also, in the experiment on M. tuberculosis H37Rv [3] (run over the course of a five month period), it took 0.09 ± 0.02 µg/mL to reach half-maximal inhibition (IC50).
As to `CC[C@@H](CO)NCCN[C@@H](CC)CO` [ethambutol], the MIC with M. tuberculosis H37Rv [3] is roughly 0.5 µg/mL.

The record behind these values is publication PMC3255569 (Tuberculosis (Edinburgh, Scotland), 2009).
